This is an account of results in ChEMBL document CHEMBL3600336, “Design and synthesis of silicon-containing fatty acid amide derivatives as novel peroxisome proliferator-activated receptor (PPAR) agonists” (Bioorg Med Chem Lett, 2015).

Common to all, as to assay type: cell-based
In data set [1] the target is T1, Peroxisome proliferator-activated receptor delta (Homo sapiens) (UniProt Q03181).
T1 sequence (whole entry): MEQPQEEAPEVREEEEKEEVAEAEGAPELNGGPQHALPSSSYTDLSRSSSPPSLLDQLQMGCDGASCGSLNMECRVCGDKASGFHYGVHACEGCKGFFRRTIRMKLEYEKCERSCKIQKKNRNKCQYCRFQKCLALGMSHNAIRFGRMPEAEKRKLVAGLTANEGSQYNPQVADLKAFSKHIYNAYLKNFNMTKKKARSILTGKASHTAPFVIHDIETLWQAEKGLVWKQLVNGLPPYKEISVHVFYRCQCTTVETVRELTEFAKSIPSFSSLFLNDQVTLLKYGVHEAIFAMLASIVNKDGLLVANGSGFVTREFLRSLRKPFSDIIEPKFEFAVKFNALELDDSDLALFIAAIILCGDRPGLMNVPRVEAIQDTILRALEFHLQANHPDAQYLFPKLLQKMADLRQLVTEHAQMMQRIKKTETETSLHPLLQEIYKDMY
The data set is described as follows: Agonist activity at Gal4-tagged human PPARdelta expressed in HEK293 cells at 3 to 30 uM incubated for 16 to 20 hrs by luciferase and beta-galactosidase activity based reporter gene assay. In general terms: Reporter assays use an easily measured gene product as a stand-in for the process of interest.

In data set [2] the target is T2, Peroxisome proliferator-activated receptor alpha (Homo sapiens) (UniProt Q07869).
T2 sequence (whole entry): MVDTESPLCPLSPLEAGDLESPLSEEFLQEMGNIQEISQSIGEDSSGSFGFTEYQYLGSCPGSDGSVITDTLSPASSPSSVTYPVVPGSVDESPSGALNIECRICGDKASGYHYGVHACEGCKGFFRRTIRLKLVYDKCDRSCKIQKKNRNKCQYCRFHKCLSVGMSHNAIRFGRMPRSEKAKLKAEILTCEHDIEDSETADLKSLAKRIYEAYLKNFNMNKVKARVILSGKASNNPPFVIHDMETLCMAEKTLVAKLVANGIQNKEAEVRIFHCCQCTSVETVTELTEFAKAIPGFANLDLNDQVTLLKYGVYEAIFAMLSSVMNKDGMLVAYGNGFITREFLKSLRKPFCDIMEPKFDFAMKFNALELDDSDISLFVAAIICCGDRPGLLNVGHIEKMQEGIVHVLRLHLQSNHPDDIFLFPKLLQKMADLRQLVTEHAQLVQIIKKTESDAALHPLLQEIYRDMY
The data set is described as follows: Agonist activity at Gal4-tagged human PPARalpha expressed in HEK293 cells at 3 to 30 uM incubated for 16 to 20 hrs by luciferase and beta-galactosidase activity based reporter gene assay.

Data set [3] has as its target T3, Peroxisome proliferator-activated receptor gamma (Homo sapiens) (UniProt P37231).
T3 sequence (whole entry): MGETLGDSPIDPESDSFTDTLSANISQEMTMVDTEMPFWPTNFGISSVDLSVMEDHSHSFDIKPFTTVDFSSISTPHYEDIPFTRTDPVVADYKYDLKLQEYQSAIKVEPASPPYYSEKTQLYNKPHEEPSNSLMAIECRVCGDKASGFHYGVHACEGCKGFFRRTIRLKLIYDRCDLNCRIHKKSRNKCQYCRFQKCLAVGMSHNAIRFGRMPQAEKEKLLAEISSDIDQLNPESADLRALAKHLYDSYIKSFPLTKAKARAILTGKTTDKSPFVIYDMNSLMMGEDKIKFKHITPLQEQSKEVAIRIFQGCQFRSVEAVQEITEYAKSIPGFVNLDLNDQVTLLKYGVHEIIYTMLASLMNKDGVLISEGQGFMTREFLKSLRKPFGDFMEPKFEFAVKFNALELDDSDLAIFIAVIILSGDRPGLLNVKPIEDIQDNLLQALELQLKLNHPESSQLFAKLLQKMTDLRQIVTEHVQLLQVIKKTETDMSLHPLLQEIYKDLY
The data set is described as follows: Agonist activity at Gal4-tagged human PPARgamma expressed in HEK293 cells at 3 to 30 uM incubated for 16 to 20 hrs by luciferase and beta-galactosidase activity based reporter gene assay.

The subject of a further data set is HEK293. In words: Toxicity against HEK293 cells assessed as reduction in cell viability at 30 uM. Conditions: human, hek293, 30 µM.

Active and inactive are the calls of the source. No cut-off for these calls is given here.

As for `CCCCCCCC[Si](CCCC)(CCCC)CCCCCCCC(=O)NCCO`, the outcome in data set [1], in data set [2] and in data set [3] was inactive.
In the case of `CCCCCCCCCCCCCCCCCC(=O)NCCO`, the outcome in data set [2] and in data set [3] was inactive.
Turning to `CCCCCCC[Si](CC)(CC)CCCCCCCC(=O)NCCO`, the result in data set [1] was Active. Further, in the data set on HEK293, the Activity entry is “Toxic”. For the same compound, the outcome in data set [2] and in data set [3] was inactive.
On to `CCCCCCCC[Si](C)(C)CCCCCCCC(=O)NCCO`, for which the result in data set [1] and in data set [2] was Active. For the same compound, the result in data set [3] was inactive.
Take `CCCCCCCC/C=C\CCCCCCCC(=O)NCCO`: in data set [2], the result was Active.
Turning to `CCCCCCCC[Si](CC)(CC)CCCCCCC(=O)NCCO`, the outcome in data set [1], in data set [2] and in data set [3] was inactive.
For the compound `CCCCCCCC[Si](CCC)(CCC)CCCCCCCC(=O)NCCO`, the result in data set [1] and in data set [2] was Active. In addition, in data set [3], the outcome was inactive.
Turning to `CCCCCCCC[Si](CC)(CC)CCCCCCCC(=O)NCCO`, the result in data set [1] and in data set [2] was Active. Also, the result in data set [3] was inactive.
